Results taken from ChEMBL document CHEMBL3751799, “Fluorinated matrix metalloproteinases inhibitors--Phosphonate based potential probes for positron emission tomography” (Bioorg Med Chem, 2016).
Activity calls are given as the source filed them. The rule behind the calls is not given here.

Key:
[1] = target: T1, 72 kDa type IV collagenase (Homo sapiens, UniProt P08253); assay: Inhibition of human MMP2 using (7-methoxycoumarin-4-yl) acetyl pro-Leu-Gly-Leu-[3-(2,4-dinitrophenyl)-L-2,3-diamino-propionyl]-Ala-Arg-NH2 as substrate preincubated for 30 mins followed by substrate addition by microplate reader analysis
Target sequence in this assay (P08253 whole entry): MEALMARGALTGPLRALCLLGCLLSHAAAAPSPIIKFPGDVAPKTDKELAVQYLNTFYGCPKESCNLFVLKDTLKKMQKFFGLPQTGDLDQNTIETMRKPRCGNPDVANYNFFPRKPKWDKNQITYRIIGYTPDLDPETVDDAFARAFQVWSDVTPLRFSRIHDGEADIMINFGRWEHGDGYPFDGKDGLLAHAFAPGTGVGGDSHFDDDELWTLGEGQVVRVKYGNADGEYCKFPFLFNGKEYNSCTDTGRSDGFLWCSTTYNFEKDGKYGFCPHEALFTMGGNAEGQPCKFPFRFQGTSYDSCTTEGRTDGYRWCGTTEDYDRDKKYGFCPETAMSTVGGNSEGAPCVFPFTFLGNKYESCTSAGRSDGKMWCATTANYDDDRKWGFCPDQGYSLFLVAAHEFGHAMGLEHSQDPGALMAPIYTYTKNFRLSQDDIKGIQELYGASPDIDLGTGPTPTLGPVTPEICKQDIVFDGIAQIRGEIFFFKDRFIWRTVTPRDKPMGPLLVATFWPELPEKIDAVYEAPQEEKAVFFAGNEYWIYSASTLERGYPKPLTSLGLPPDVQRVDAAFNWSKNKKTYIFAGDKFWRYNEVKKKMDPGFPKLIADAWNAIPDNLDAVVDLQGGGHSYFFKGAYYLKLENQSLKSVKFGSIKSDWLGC

Neutrophil collagenase [2] = target: T2, Neutrophil collagenase (Homo sapiens, UniProt P22894); assay: Inhibition of MMP8 (unknown origin) using (7-methoxycoumarin-4-yl) acetyl pro-Leu-Gly-Leu-[3-(2,4-dinitrophenyl)-L-2,3-diamino-propionyl]-Ala-Arg-NH2 as substrate preincubated for 30 mins followed by substrate addition by microplate reader analysis
Target sequence in this assay (P22894 whole entry): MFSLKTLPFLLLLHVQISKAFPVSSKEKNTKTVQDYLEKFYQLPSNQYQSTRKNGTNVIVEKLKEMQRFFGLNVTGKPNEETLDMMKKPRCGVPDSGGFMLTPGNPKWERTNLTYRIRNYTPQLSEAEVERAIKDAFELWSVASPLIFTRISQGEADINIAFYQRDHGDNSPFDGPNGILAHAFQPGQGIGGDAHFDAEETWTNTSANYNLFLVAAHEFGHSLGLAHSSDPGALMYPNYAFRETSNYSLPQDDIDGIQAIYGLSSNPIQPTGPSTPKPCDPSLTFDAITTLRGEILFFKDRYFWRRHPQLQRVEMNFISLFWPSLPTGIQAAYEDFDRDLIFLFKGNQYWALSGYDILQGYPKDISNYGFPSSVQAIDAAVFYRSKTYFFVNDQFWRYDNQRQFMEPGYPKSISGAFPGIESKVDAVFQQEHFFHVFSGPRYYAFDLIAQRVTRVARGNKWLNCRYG

[3] = target: T3, Matrix metalloproteinase-9 (Homo sapiens, UniProt P14780); assay: Inhibition of human MMP9 using (7-methoxycoumarin-4-yl) acetyl pro-Leu-Gly-Leu-[3-(2,4-dinitrophenyl)-L-2,3-diamino-propionyl]-Ala-Arg-NH2 as substrate preincubated for 30 mins followed by substrate addition by microplate reader analysis
Collagenase 3 [4] = target: T4, Collagenase 3 (Homo sapiens, UniProt P45452); assay: Inhibition of MMP13 (unknown origin) using (7-methoxycoumarin-4-yl) acetyl pro-Leu-Gly-Leu-[3-(2,4-dinitrophenyl)-L-2,3-diamino-propionyl]-Ala-Arg-NH2 as substrate preincubated for 30 mins followed by substrate addition by microplate reader analysis
[5] = target: T1, 72 kDa type IV collagenase; assay: Inhibition of human MMP2 up to 100 uM using (7-methoxycoumarin-4-yl) acetyl pro-Leu-Gly-Leu-[3-(2,4-dinitrophenyl)-L-2,3-diamino-propionyl]-Ala-Arg-NH2 as substrate preincubated for 30 mins followed by substrate addition by microplate reader analysis
Target sequence in this assay (P08253 110-660 limits assumed): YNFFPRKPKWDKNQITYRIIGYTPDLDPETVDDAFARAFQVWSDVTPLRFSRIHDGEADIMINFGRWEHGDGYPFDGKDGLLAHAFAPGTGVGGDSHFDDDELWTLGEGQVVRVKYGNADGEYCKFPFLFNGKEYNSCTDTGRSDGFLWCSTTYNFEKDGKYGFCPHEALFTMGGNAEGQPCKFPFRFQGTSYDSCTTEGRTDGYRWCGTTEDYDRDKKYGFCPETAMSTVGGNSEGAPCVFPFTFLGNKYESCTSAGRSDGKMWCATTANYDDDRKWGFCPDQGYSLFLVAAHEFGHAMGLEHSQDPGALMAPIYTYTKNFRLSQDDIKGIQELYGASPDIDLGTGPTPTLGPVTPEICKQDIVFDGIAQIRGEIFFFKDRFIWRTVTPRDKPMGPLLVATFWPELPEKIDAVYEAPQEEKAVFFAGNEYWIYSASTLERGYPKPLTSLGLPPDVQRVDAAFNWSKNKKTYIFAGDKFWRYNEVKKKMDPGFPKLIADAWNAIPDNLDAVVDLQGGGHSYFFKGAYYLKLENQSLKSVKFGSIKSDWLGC

Neutrophil collagenase [6] = target: T2, Neutrophil collagenase; assay: Inhibition of MMP8 (unknown origin) up to 100 uM using (7-methoxycoumarin-4-yl) acetyl pro-Leu-Gly-Leu-[3-(2,4-dinitrophenyl)-L-2,3-diamino-propionyl]-Ala-Arg-NH2 as substrate preincubated for 30 mins followed by substrate addition by microplate reader analysis
Target sequence in this assay (P22894 101-467 limits assumed): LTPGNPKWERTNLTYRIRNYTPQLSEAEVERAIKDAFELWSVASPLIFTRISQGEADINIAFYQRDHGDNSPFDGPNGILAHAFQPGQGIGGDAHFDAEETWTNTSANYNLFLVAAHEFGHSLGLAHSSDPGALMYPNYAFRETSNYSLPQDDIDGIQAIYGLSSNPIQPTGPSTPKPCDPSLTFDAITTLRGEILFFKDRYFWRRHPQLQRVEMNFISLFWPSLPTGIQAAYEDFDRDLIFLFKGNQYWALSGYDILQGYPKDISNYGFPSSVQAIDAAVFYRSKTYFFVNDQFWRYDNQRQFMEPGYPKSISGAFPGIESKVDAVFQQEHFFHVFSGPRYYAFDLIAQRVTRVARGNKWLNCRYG

[7] = target: T3, Matrix metalloproteinase-9; assay: Inhibition of human MMP9 up to 100 uM using (7-methoxycoumarin-4-yl) acetyl pro-Leu-Gly-Leu-[3-(2,4-dinitrophenyl)-L-2,3-diamino-propionyl]-Ala-Arg-NH2 as substrate preincubated for 30 mins followed by substrate addition by microplate reader analysis
Collagenase 3 [8] = target: T4, Collagenase 3; assay: Inhibition of MMP13 (unknown origin) up to 100 uM using (7-methoxycoumarin-4-yl) acetyl pro-Leu-Gly-Leu-[3-(2,4-dinitrophenyl)-L-2,3-diamino-propionyl]-Ala-Arg-NH2 as substrate preincubated for 30 mins followed by substrate addition by microplate reader analysis

T3 sequence (P14780 whole entry): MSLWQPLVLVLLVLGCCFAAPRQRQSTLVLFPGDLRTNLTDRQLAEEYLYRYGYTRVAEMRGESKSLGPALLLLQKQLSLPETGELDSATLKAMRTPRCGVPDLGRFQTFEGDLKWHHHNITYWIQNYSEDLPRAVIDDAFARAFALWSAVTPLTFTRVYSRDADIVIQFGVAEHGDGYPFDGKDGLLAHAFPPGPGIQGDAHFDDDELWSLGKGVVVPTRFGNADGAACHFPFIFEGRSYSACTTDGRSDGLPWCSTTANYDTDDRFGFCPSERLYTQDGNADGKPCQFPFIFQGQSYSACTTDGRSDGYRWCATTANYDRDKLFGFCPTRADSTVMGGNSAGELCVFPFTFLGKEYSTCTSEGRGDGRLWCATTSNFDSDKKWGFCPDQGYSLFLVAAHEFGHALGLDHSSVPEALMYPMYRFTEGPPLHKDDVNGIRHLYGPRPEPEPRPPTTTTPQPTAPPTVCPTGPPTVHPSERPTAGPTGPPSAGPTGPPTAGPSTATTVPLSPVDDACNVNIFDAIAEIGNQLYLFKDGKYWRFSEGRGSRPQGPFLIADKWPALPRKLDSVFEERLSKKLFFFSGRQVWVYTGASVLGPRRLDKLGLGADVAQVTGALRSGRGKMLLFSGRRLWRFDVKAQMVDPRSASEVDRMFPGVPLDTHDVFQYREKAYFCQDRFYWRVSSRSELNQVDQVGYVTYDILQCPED

| SMILES | IC50 [1] [nM] | IC50 (Neutrophil collagenase [2]) [nM] | IC50 [3] [nM] | IC50 (Collagenase 3 [4]) [nM] | inhibition [5] | inhibition (Neutrophil collagenase [6]) | inhibition [7] | inhibition (Collagenase 3 [8]) |
| --- | --- | --- | --- | --- | --- | --- | --- | --- |
| CC(C)C(NS(=O)(=O)c1ccc(-c2ccc(F)nc2)cc1)P(=O)(O)O (stereo not given) | 628 | > 100000 | 393 | 1030 | – | – | – | – |
| COc1ccc(-c2ccc(S(=O)(=O)NC(C(C)C)P(=O)(O)O)cc2)cc1 (racemic) | 9.25 | – | 8.85 | 2.17 | – | – | – | – |
| CC(C)C(NS(=O)(=O)c1ccc(-c2ccc(OCCF)cc2)cc1)P(=O)(O)O (stereo not given) | 11.7 | – | 18.5 | 2.41 | – | – | – | – |
| Cc1ccc(-c2ccc(S(=O)(=O)NC(C(C)C)P(=O)(O)O)cc2)s1 (stereo not given) | > 100000 | > 100000 | > 100000 | > 100000 | – | – | – | – |
| COc1ccc(-c2ccc(S(=O)(=O)N[C@@H](CCCCCF)P(=O)(O)O)cc2)cc1 | 6.5 | – | 19 | 5.37 | – | – | – | – |
| COCc1ccc(-c2ccc(S(=O)(=O)NC(C(C)C)P(=O)(O)O)cc2)s1 (stereo not given) | > 100000 | > 100000 | > 100000 | > 100000 | – | – | – | – |
| COc1ccc(-c2ccc(S(=O)(=O)N[C@H](CCCCCF)P(=O)(O)O)cc2)cc1 | 791 | 42.2 | > 100000 | 93.8 | – | – | – | – |

Continued, values first:

| IC50 [1] [nM] | IC50 (Neutrophil collagenase [2]) [nM] | IC50 [3] [nM] | IC50 (Collagenase 3 [4]) [nM] | inhibition [5] | inhibition (Neutrophil collagenase [6]) | inhibition [7] | inhibition (Collagenase 3 [8]) | SMILES |
| --- | --- | --- | --- | --- | --- | --- | --- | --- |
| – | – | – | – | inactive | inactive | inactive | inactive | COc1ccc(S(=O)(=O)N(Cc2cccnc2)C(CC(C)C)P(=O)(O)O)cc1 (stereo not given) |
| – | – | – | – | inactive | inactive | inactive | inactive | COc1ccc(S(=O)(=O)N(Cc2cccnc2)C(C(C)C)P(=O)(O)O)cc1 (stereo not given) |
| 56.3 | 83.1 | 96.4 | 73.1 | – | – | – | – | CC(C)C(N(Cc1ccccc1)S(=O)(=O)c1ccc(-c2ccc(OCCF)cc2)cc1)P(=O)(O)O (stereo not given) |
| – | – | – | – | inactive | inactive | inactive | inactive | COc1ccc(S(=O)(=O)N(Cc2ccccc2)C(CC(C)C)P(=O)(O)O)cc1 (stereo not given) |
| – | – | – | – | inactive | inactive | inactive | inactive | COc1ccc(S(=O)(=O)N(Cc2ccccc2)C(C(C)C)P(=O)(O)O)cc1 (stereo not given) |
